From US5656600A, “α-ketoamide derivatives as inhibitors of thrombosis” (Corvas International, Inc., priority 1993, dated 1997)

Assays:
Rat Venous Stasis Model = test: Venous stasis in rats (thromboplastin plus stasis, inferior vena cava); type: in vivo; settings: for % Clot: mean ± S.E.M.
Procedure: This is one of the most commonly used models in the evaluation of antithrombotic compounds. Hladovec, J. Thromb. […] Talbot, M. D., et. al., Thromb.
Male Harlan Sprague Dawley rats (420-450 g) were acclimated at least 72 hours prior to use. The animals were fasted for 12 hours prior to surgery with free access to water. The animals were anesthetized with a sodium pentobarbital (Nembutal) given intraperitoneally at a dose of 50 mg/kg body weight and placed on a isothermal pad to maintain body temperature. The level of anesthesia was monitored every 15 minutes by: neuro-response to a tail pinch, respiration and body core temperature. The desired depth of surgical anesthesia was maintained by administering subsequent doses (5 mg/kg) intravenously. The left femoral artery was catheterized with polyethylene tubing (PE50) using standard procedures for blood pressure monitoring and blood sampling. The left and right femoral veins were catheterized with PE50 tubing for delivery of anesthetic and test compounds respectively.
Blood pressure, heart rate, core temperature and respiration were monitored continuously.
The abdomen of the animals is opened by making a vertical midline incision followed by isolation of the IVC using dissection. The segment extends from below the renal to above the iliac vessels (about 2 cm in length). The peripheral blood vessels are tied off and a ligature is loosely placed at the distal and proximal ends of the isolated segment. Rabbit brain thromboplastin (RBT) (Sigma Chemical Co., St. Louis MO) is prepared by resuspending the contents of the vial with 2 mL of sterile saline pre-warmed to 37° C. At the end of the 30 minute infusion period, RBT is systemically administered as a bolus injection (1.5 mL/kg) via the femoral catheter. Stasis is induced within the isolated IVC segment by securing the proximal and distal ligature 10 sec following the administration of the RBT. Following a 30 minute period of stasis the tied off IVC segment is removed and the contents weighed. Clot formation was defined as %clot: [Weight of the isolated clot/(Weight of the intact segment-the weight of the empty segment)]×100. This method was used to correct for slight differences in segment size and fluid content.
Following termination of the experiment the animal was euthanized with a 120 mg/kg dose of Nembutal.

[1] = test system: FeCl3 Model of Thrombosis in Rats; test: Rat model of FeCl3-induced platelet-dependent arterial thrombosis; type: in vivo; settings: for Incidence of Occlusion: occluded/total animals
Source text: Kurz, K. D., Main, B. W., and Sandusky, G. E., Thromb. Res., 60:269-280 (1990). In this model a platelet-rich, occlusive thrombus is formed in a segment of the rat carotid artery treated with a fresh solution of FeCl3 absorbed to a piece of filter paper. The FeCl3 is thought to diffuse into the treated segment of artery and causes de-endothelialization resulting in thrombus formation. The effect of a test compound on the incidence of occlusive thrombus formation following the application of the FeCl3 is monitored by ultrasonic flowtometry and is used as the primary end point. The use of flowtometry is a modification of the original procedure in which thermal detection of clot formation was employed. Kurz, K. D., Main, B. W., and Sandusky, G. E., Thromb. Res., 60:269-280 (1990).
Male Harlan Sprague Sawley rats (420-450 g) were acclimated at least 72 hours prior to use and fasted for 12 hours prior to surgery with free access to water. The animals were prepared, anesthetized with Nembutal with catheters for blood pressure monitoring, drug and anesthesia delivery being implanted as described above. The left carotid artery was exposed and isolated by making a midline cervical incision followed by blunt dissection and spreading techniques to separate a 2 cm segment of the vessel from the carotid sheath. A silk suture is inserted under the proximal and distal ends of the isolated vessel to provide clearance for the placement of a ultrasonic flow probe (Transonic) around the proximal end of the vessel. The probe is then secured with a stationary arm.
The test compounds were administered as described above after placement of the flow probe and stabilization of the preparation for a period of 60 minutes prior to the thrombogenic stimulus. At t=0, a 3 mm diameter piece of filter paper (Whatman #3) soaked with 10 μL of a 35% solution of fresh FeCl3 (in water) was applied the segment of isolated carotid artery distal to the flow probe. Blood pressure, blood flow, heart rate, and respiration were monitored for 60 minutes.
The incidence of occlusion (defined as the attainment of zero blood flow) was recorded as the primary end point. Following the 60 minute observation period the flow probe was removed and the area cleared of all excess fluid. The distal and proximal sutures were tied off and arterial clamps placed on the far proximal and distal ends of the segment. The isolated segment was cut out, blotted dry on filter paper and weighed. The segment was re-weighed following removal of the clot and the difference recorded as total % clot (see above). Weights were recorded on only those segments which had detectable thrombus. Following the procedure the animals were euthanized as described above.

washed human platelets = test: Thrombin-induced aggregation in washed human platelets; type: cell-based
Procedure: Washed human platelets were prepared from freshly isolated venous blood obtained from normal, healthy volunteers who had not taken any medication which might affect platelet function, according to the procedure of Connolly, T. M. et al., J. Biol. Chem., 267:6893 (1992). Inhibitors, were added in a volume of 20 μL to 350 μL of prewarmed washed platelets in a siliconized glass cuvette (Chronolog Corp., Havertown, PA) followed by 10 μL of 0.25 M CaCl2. The rate and extent of aggregation were measured for 5-15 minutes by the change in light transmission in a stirred cuvette, following the addition of 20 μL of […] (final concentration 2 nM), using a Chronolog Whole Blood Aggregometer equipped with the Aggro/Link data acquisition system (Chronolog Corp., Hayertown, PA). The extent of inhibition was determined by measuring the change in the amplitude (extent) of the aggregation response compared to the control (uninhibited) response over the 1 minute period following the addition of thrombin.

[2] = 0.1 mg/kg i.v. bolus + 40 μg/kg/min i.v. infusion

Substance: (D--Phe)--Pro--Arg--Pro--(Gly4 --Asn--Gly--Asp--Phe--Glu--Glu--IIe--Pro--Glu--Glu--Tyr--Leu--OH [Compound 25]
- % Clot (Rat Venous Stasis Model; [2]): 25.75 ± 3.71%
- % Clot (Rat Venous Stasis Model; 0.1 mg/kg i.v. bolus + 60 μg/kg/min i.v. infusion): 26.50 ± 3.59%
- % Clot (Rat Venous Stasis Model; 0.1 mg/kg i.v. bolus + 80 μg/kg/min i.v. infusion): 25.75 ± 0.41%
- effect on venous thrombus formation induced by stasis and thromboplastin (Rat Venous Stasis Model; summary in words): did not have any effect of thrombus formation
- % Clot ([1]; 0.1 mg/kg i.v. bolus + 5 μg/kg/min i.v. infusion, mean ± S.E.M., segments with detectable thrombus): 70.1 ± 5.5%
- Incidence of Occlusion ([1]; 0.1 mg/kg i.v. bolus + 5 μg/kg/min i.v. infusion): 3/3
- % Clot ([1]; 0.1 mg/kg i.v. bolus + 10 μg/kg/min i.v. infusion, mean ± S.E.M., segments with detectable thrombus): 59.42 ± 4.34%
- Incidence of Occlusion ([1]; 0.1 mg/kg i.v. bolus + 10 μg/kg/min i.v. infusion): 5/6
- % Clot ([1]; 0.1 mg/kg i.v. bolus + 20 μg/kg/min i.v. infusion, mean ± S.E.M., segments with detectable thrombus): 45.3 ± 11.63%
- Incidence of Occlusion ([1]; 0.1 mg/kg i.v. bolus + 20 μg/kg/min i.v. infusion): 5/6
- % Clot [1, 2]: 0%
- Incidence of Occlusion [1, 2]: 0/6
- persistence of inhibition of aggregation over the 15 minute course of the assay (washed human platelets; 20nM (compound 8), same or higher concentrations (Hirulog-1), FIG. 4): did not cause sustained inhibition of the aggregation response
- IC50 (washed human platelets; α-thrombin 2 nM, extent of aggregation over 1 minute after thrombin, mean ± standard deviation, three determinations): 16 ± 3 nM
